# Results published in patent US4409210A, “Antibiotic compound” (priority 1982, dated 1983).
# Legend:
# Assay type in all cases: cell-based
# [1] = system: Bacteroides fragilis CUH-9; experiment: MIC, serial two-fold dilution method (anaerobic); conditions: CUH9; Bacteroides fragilis CUH-9; GAM agar medium; inoculum 10^7-10^8; read-out: minimum inhibitory concentration (MIC)
# [2] = system: Bacteroides fragilis A22533; experiment: MIC, serial two-fold dilution method (anaerobic); conditions: Bacteroides fragilis A22533; GAM agar medium; inoculum 10^7-10^8; read-out: minimum inhibitory concentration (MIC)
# [3] = system: Bacteroides fragilis A21900; experiment: MIC, serial two-fold dilution method (anaerobic); conditions: Bacteroides fragilis A21900; GAM agar medium; inoculum 10^7-10^8; read-out: minimum inhibitory concentration (MIC)
# [4] = system: Propionibacterium acnes A22650; experiment: MIC, serial two-fold dilution method (anaerobic); conditions: Cutibacterium acnes; Propionibacterium acnes A22650; GAM agar medium; inoculum 10^7-10^8; read-out: minimum inhibitory concentration (MIC)
# [5] = system: Clostridium cylindrosporum A9562; experiment: MIC, serial two-fold dilution method (anaerobic); conditions: Clostridium cylindrosporum A9562; GAM agar medium; inoculum 10^7-10^8; read-out: minimum inhibitory concentration (MIC)
# [6] = system: Bacteroides fragilis CUH-24; experiment: MIC, serial two-fold dilution method (anaerobic); conditions: CUH24; Bacteroides fragilis CUH-24; GAM agar medium; inoculum 10^7-10^8; read-out: minimum inhibitory concentration (MIC)
# [7] = system: Veillonella alcalescens A21914-1; experiment: MIC, serial two-fold dilution method (anaerobic); conditions: Veillonella parvula, A219141; Veillonella alcalescens A21914-1; GAM agar medium; inoculum 10^7-10^8; read-out: minimum inhibitory concentration (MIC)
# [8] = system: Propionibacterium acnes A21933; experiment: MIC, serial two-fold dilution method (anaerobic); conditions: Cutibacterium acnes; Propionibacterium acnes A21933; GAM agar medium; inoculum 10^7-10^8; read-out: minimum inhibitory concentration (MIC)
# [9] = system: Bacteroides fragilis A20929; experiment: MIC, serial two-fold dilution method (anaerobic); conditions: Bacteroides fragilis A20929; GAM agar medium; inoculum 10^7-10^8; read-out: minimum inhibitory concentration (MIC)
# [10] = system: Clostridium perfringens A9635; experiment: microbe, parasite or virus in culture; conditions: Clostridium perfringens, A9635, read-out: minimum inhibitory concentration (MIC)
# [11] = system: Peptococcus magnas A21676; experiment: MIC, serial two-fold dilution method (anaerobic); conditions: Peptococcus magnas A21676; GAM agar medium; inoculum 10^7-10^8; read-out: minimum inhibitory concentration (MIC)
# [12] = system: Bacteroides fragilis A20928-1; experiment: MIC, serial two-fold dilution method (anaerobic); conditions: A209281; Bacteroides fragilis A20928-1; GAM agar medium; inoculum 10^7-10^8; read-out: minimum inhibitory concentration (MIC)
# [13] = system: Bacteroides fragilis A22695; experiment: MIC, serial two-fold dilution method (anaerobic); conditions: Bacteroides fragilis A22695; GAM agar medium; inoculum 10^7-10^8; read-out: minimum inhibitory concentration (MIC)
# [14] = system: Fusobacterium varium ATCC 8501; experiment: MIC, serial two-fold dilution method (anaerobic); conditions: ATCC8501; Fusobacterium varium ATCC 8501; GAM agar medium; inoculum 10^7-10^8; read-out: minimum inhibitory concentration (MIC)
# [15] = system: Clostridium perfringens A22787; experiment: microbe, parasite or virus in culture; conditions: Clostridium perfringens, A22787, read-out: minimum inhibitory concentration (MIC)
# [16] = system: Clostridium ramosum A21970; experiment: MIC, serial two-fold dilution method (anaerobic); conditions: Thomasclavelia ramosa; Clostridium ramosum A21970; GAM agar medium; inoculum 10^7-10^8; read-out: minimum inhibitory concentration (MIC)
# [17] = system: Clostridium acidiurici A9560; experiment: MIC, serial two-fold dilution method (anaerobic); conditions: Gottschalkia acidurici; Clostridium acidiurici A9560; GAM agar medium; inoculum 10^7-10^8; read-out: minimum inhibitory concentration (MIC)
# [18] = system: Clostridium difficile A21972; experiment: MIC, serial two-fold dilution method (anaerobic); conditions: Clostridioides difficile; Clostridium difficile A21972; GAM agar medium; inoculum 10^7-10^8; read-out: minimum inhibitory concentration (MIC)
# Method: (§1) The minimum inhibitory concentration (MIC) of Bu-2517 was determined for a variety of aerobic and anaerobic bacteria by the serial two-fold dilution method using a multi-inoculating apparatus. Mueller-Hinton agar was generally used for aerobic bacteria, GC medium (Eiken) for fastidious aerobic organisms such as streptococci, Neisseria and Haemophilus species, and GAM agar medium (Nissui) for anaerobic bacteria. The inoculum size was adjusted to 10^6 CFU/ml for streptococci, Neisseria and Haemophilus species, 10^4 for other aerobic bacteria and 10^7 -10^8 for all anaerobic organisms. Amphomycin, ampicillin, chloramphenicol, clindamycin, erthromycin, kanamycin and vancomycin were used as reference antibiotics.
# [19] = system: Clostridium chauvoei A9561; experiment: MIC, serial two-fold dilution method (anaerobic); conditions: Clostridium chauvoei A9561; GAM agar medium; inoculum 10^7-10^8; read-out: minimum inhibitory concentration (MIC)
# Method: as §1
# [20] = system: Clostridium difficile A21675; experiment: MIC, serial two-fold dilution method (anaerobic); conditions: Clostridioides difficile; Clostridium difficile A21675; GAM agar medium; inoculum 10^7-10^8; read-out: minimum inhibitory concentration (MIC)
# Method: as §1
# [21] = system: Clostridium septicum A21869; experiment: MIC, serial two-fold dilution method (anaerobic); conditions: Clostridium septicum A21869; GAM agar medium; inoculum 10^7-10^8; read-out: minimum inhibitory concentration (MIC)
# Method: as §1
# [22] = system: Veillonella parvula A20010; experiment: MIC, serial two-fold dilution method (anaerobic); conditions: Veillonella parvula A20010; GAM agar medium; inoculum 10^7-10^8; read-out: minimum inhibitory concentration (MIC)
# [23] = system: Fusobacterium necrophorum A20013; experiment: MIC, serial two-fold dilution method (anaerobic); conditions: Fusobacterium necrophorum A20013; GAM agar medium; inoculum 10^7-10^8; read-out: minimum inhibitory concentration (MIC)
# [24] = system: Fusobacterium nucleatum A21906; experiment: MIC, serial two-fold dilution method (anaerobic); conditions: Fusobacterium nucleatum A21906; GAM agar medium; inoculum 10^7-10^8; read-out: minimum inhibitory concentration (MIC)
# [25] = system: Bacteroides fragilis A20926; experiment: MIC, serial two-fold dilution method (anaerobic); conditions: Bacteroides fragilis A20926; GAM agar medium; inoculum 10^7-10^8; read-out: minimum inhibitory concentration (MIC)
# [26] = system: Bacteroides fragilis A22053; experiment: MIC, serial two-fold dilution method (anaerobic); conditions: Bacteroides fragilis A22053; GAM agar medium; inoculum 10^7-10^8; read-out: minimum inhibitory concentration (MIC)
# [27] = system: Propionibacterium acnes A21953; experiment: MIC, serial two-fold dilution method (anaerobic); conditions: Cutibacterium acnes; Propionibacterium acnes A21953; GAM agar medium; inoculum 10^7-10^8; read-out: minimum inhibitory concentration (MIC)
# [28] = system: Peptostreptococcus anaerobius A21905; experiment: MIC, serial two-fold dilution method (anaerobic); conditions: Peptostreptococcus anaerobius A21905; GAM agar medium; inoculum 10^7-10^8; read-out: minimum inhibitory concentration (MIC)
# [29] = system: Bacteroides ovatus A22400; experiment: MIC, serial two-fold dilution method (anaerobic); conditions: Bacteroides ovatus A22400; GAM agar medium; inoculum 10^7-10^8; read-out: minimum inhibitory concentration (MIC)
# [30] = system: Peptostreptococcus intermedius A21881; experiment: MIC, serial two-fold dilution method (anaerobic); conditions: Peptostreptococcus intermedius A21881; GAM agar medium; inoculum 10^7-10^8; read-out: minimum inhibitory concentration (MIC)
smiles,measurement,setting,value
CCC[C@@H]1C[C@@H](C(=O)N[C@@H]([C@H]2O[C@H](SC)[C@H](O)[C@@H](O)[C@H]2O)[C@H](C)Cl)N(C)C1 [Clindamycin],MIC,[1],50 µg/mL
same,MIC,[2],0.025 µg/mL
same,MIC,[3],1.6 µg/mL
same,MIC,[4],0.1 µg/mL
same,MIC,[5],0.8 µg/mL
same,MIC,[6],> 100 µg/mL
same,MIC,[7],0.013 µg/mL
same,MIC,[8],0.8 µg/mL
same,MIC,[9],3.1 µg/mL
same,MIC,[10],0.025 µg/mL
same,MIC,[11],0.05 µg/mL
same,MIC,[12],0.025 µg/mL
same,MIC,[13],0.1 µg/mL
same,MIC,[14],1.6 µg/mL
same,MIC,[15],50 µg/mL
same,MIC,[16],0.025 µg/mL
same,MIC,[17],0.8 µg/mL
same,MIC,[18],0.025 µg/mL
same,MIC,[19],0.025 µg/mL
same,MIC,[20],100 µg/mL
same,MIC,[21],0.8 µg/mL
same,MIC,[22],0.4 µg/mL
same,MIC,[23],12.5 µg/mL
same,MIC,[24],1.6 µg/mL
same,MIC,[25],0.025 µg/mL
same,MIC,[26],0.2 µg/mL
same,MIC,[27],0.8 µg/mL
same,MIC,[28],0.2 µg/mL
same,MIC,[29],6.3 µg/mL
same,MIC,[30],0.2 µg/mL
